From patent US7723332B2, “Aryl sulfonamides useful for modulation of the progesterone receptor” (Wyeth LLC, priority 2007, dated 2010)

System: alkaline phosphatase activity in T47D cells
Assay: Effects of progestins and antiprogestins on alkaline phosphatase activity in T47D cells
Assay type: cell-based
Details: for IC50: Homo sapiens
Description: Effects of Progestins and Antiprogestins on Alkaline Phosphatase Activity in T47D Cells
This example was performed to identify progestins or antiprogestins by determining a compound's effect on alkaline phosphatase activity in T47D cells.
Culture medium: DMEM:F12 (1:1) (GIBCO, BRL) supplemented with 5% (v/v) charcoal stripped fetal bovine serum (not heat-inactivated), 100 U/mL penicillin, 100 μg/mL streptomycin, and 2 mM the GlutaMax™ reagent (GIBCO, BRL).
Alkaline phosphatase assay buffer: • I. 0.1M Tris-HCl, pH 9.8, containing 0.2% the Triton® X-100 reagent • II. 0.1 M Tris-HCl, pH 9.8, containing 4 mM p-nitrophenyl phosphate (Sigma).
Frozen T47D cells were thawed in a 37° C. water bath and diluted to 280,000 cells/mL in culture medium. To each well in a 96-well plate (Falcon, Becton Dickinson Labware), 180 μL of diluted cell suspension was added. Twenty μL of reference or test compounds diluted in the culture medium was then added to each well. When testing for progestin antagonist activity, reference antiprogestins or test compounds were added in the presence of 1 nM progesterone. The cells were incubated at 37° C. in a 5% CO2/humidified atmosphere for 24 hours. NOTE: For high throughput screening, one concentration of each compound was tested at 0.3 μg/mL. Based on an average molecular weight of 300 g/mol for the compounds in the library, the concentration was approximately 1 μM. Subsequently, active compounds were tested in dose response assays to determine EC50 and IC50.
At the end of treatment, the medium was removed from the plate. Fifty μL of assay buffer I was added to each well. The plates were shaken in a titer plate shaker for 15 minutes. 150 μL of assay buffer II was then added to each well. Optical density measurements were taken at 5 minute intervals for 30 minutes at a test wavelength of 405 nm.
For reference and test compounds, a dose response curve was generated for dose (X-axis) vs. the rate of enzyme reaction (slope) (Y-axis). Square root-transformed data was used for analysis of variance and nonlinear dose response curve fitting for both agonist and antagonist modes. Huber weighting was used to down-weight the effects of outliners. EC50 or IC50 values were calculated from the retransformed values. JMP software (SAS Institute, Inc.) was used for both one-way analysis of variance and non-4 linear dose response analysis in both single dose and dose response studies.
Progesterone and trimegestone are reference progestins known in the art and typically show an EC50 of about 0.1 nM to about 2.0 nM.

[1] = T47D alkaline phosphatase assay, antagonist mode in the presence of 1 nM progesterone, 24 hours

SMILES | IC50 [1] | further results
CCNS(=O)(=O)c1ccc(-c2ccc(C#N)n2C)cc1OC(F)(F)F [Example 49, 4-(5-cyano-1-methyl-1H-pyrrol-2-yl)-N-ethyl-2-(trifluoromethoxy)benzenesulfonamide] | 122 nM | 
Cn1c(C#N)ccc1-c1ccc(S(=O)(=O)NC(C)(C)C)c(OC(F)(F)F)c1 [Example 57, N-tert-butyl-4-(5-cyano-1-methyl-1H-pyrrol-2-yl)-2-(trifluoromethoxy)benzenesulfonamide] |  | Active Dose [1]: 30 nM
Cn1c(C#N)ccc1-c1ccc(S(=O)(=O)NC2CCC2)c(OC(F)(F)F)c1 [Example 56, 4-(5-cyano-1-methyl-1H-pyrrol-2-yl)-N-cyclobutyl-2-(trifluoromethoxy)benzenesulfonamide] |  | Active Dose [1]: 30 nM
Cn1c(C#N)ccc1-c1ccc(S(=O)(=O)NC2CCC2)c(F)c1 [Example 45, 4-(5-cyano-1-methyl-1H-pyrrol-2-yl)-N-cyclobutyl-2-fluorobenzenesulfonamide] | 99.4 nM | 
CN(C)S(=O)(=O)c1ccc(-c2ccc(C#N)n2C)cc1C(F)(F)F [Example 20, 4-(5-cyano-1-methyl-1H-pyrrol-2-yl)-N,N-dimethyl-2-(trifluoromethyl)benzenesulfonamide] | 81.9 nM | 
Cn1c(C#N)ccc1-c1ccc(S(=O)(=O)NCC2CC2)c(F)c1 [Example 44, 4-(5-cyano-1-methyl-1H-pyrrol-2-yl)-N-(cyclopropylmethyl)-2-fluorobenzenesulfonamide] | 45.6 nM | 
Cn1c(C#N)ccc1-c1ccc(S(=O)(=O)NC(C)(C)C)cc1 [Example 9, N-(tert-butyl)-4-(5-cyano-1-methyl-1H-pyrrol-2-yl)benzenesulfonamide] |  | Active Dose [1]: 10000 nM
CC(C)NS(=O)(=O)c1ccc(-c2ccc(C#N)n2C)cc1C(F)(F)F [Example 23, 4-(5-cyano-1-methyl-1H-pyrrol-2-yl)-N-isopropyl-2-(trifluoromethyl)benzenesulfonamide] | 77.1 nM | 
CN(C)S(=O)(=O)c1ccc(-c2ccc(C#N)n2C)cc1 [Example 2, 4-(5-cyano-1-methyl-1H-pyrrol-2-yl)-N,N-dimethylbenzenesulfonamide] | 81.3 nM | 
Cn1c(C#N)ccc1-c1ccc(S(=O)(=O)NC2CC2)c(F)c1 [Example 43, 4-(5-cyano-1-methyl-1H-pyrrol-2-yl)-N-cyclopropyl-2-fluorobenzenesulfonamide] |  | Active Dose [1]: 30 nM
CCN(CC)S(=O)(=O)c1ccc(-c2ccc(C#N)n2C)cc1 [Example 8, 4-(5-cyano-1-methyl-1H-pyrrol-2-yl)-N,N-diethylbenzenesulfonamide] | 48.4 nM | 
CC#C[C@]1(O)CC[C@H]2[C@@H]3CCC4=CC(=O)CCC4=C3[C@@H](c3ccc(N(C)C)cc3)C[C@@]21C [RU486, reference compound] |  | IC50 (T47D, 24 h, reference antiprogestin, in the presence of 1 nM progesterone, typical value): 0.1 to 2 nM

More lines, in order of falling IC50 [1], values ahead:

IC50 [1] | SMILES | further results
40.8 nM | Cn1c(C#N)ccc1-c1ccc(S(=O)(=O)NCC(F)(F)F)cc1 [Example 16, 4-(5-cyano-1-methyl-1H-pyrrol-2-yl)-N-(2,2,2-trifluoroethyl)benzenesulfonamide] | 
38.2 nM | Cn1c(C#N)ccc1-c1ccc(S(=O)(=O)NC2CC2)c(C(F)(F)F)c1 [Example 27, 4-(5-cyano-1-methyl-1H-pyrrol-2-yl)-N-cyclopropyl-2-(trifluoromethyl)benzenesulfonamide] | 
35.8 nM | Cn1c(C#N)ccc1-c1ccc(S(N)(=O)=O)c(C(F)(F)F)c1 [Example 19, 4-(5-cyano-1-methyl-1H-pyrrol-2-yl)-2-(trifluoromethyl)benzenesulfonamide] | 
27.6 nM | Cn1c(C#N)ccc1-c1ccc(S(=O)(=O)NCC2CC2)cc1 [Example 17, 4-(5-cyano-1-methyl-1H-pyrrol-2-yl)-N-(cyclopropylmethyl)benzenesulfonamide] | 
26.8 nM | CC(C)NS(=O)(=O)c1ccc(-c2ccc(C#N)n2C)c(F)c1 [Example 35, 4-(5-cyano-1-methyl-1H-pyrrol-2-yl)-3-fluoro-N-isopropylbenzenesulfonamide] | 
18.1 nM | Cn1c(C#N)ccc1-c1ccc(S(=O)(=O)NC2CCC2)cc1F [Example 40, 4-(5-cyano-1-methyl-1H-pyrrol-2-yl)-N-cyclobutyl-3-fluorobenzenesulfonamide] | 
17 nM | Cn1c(C#N)ccc1-c1ccc(S(=O)(=O)NC2CCC2)c(C(F)(F)F)c1 [Example 29, 4-(5-cyano-1-methyl-1H-pyrrol-2-yl)-N-cyclobutyl-2-(trifluoromethyl)benzenesulfonamide] | 
13.9 nM | Cn1c(C#N)ccc1-c1ccc(S(=O)(=O)NC2CCC2)cc1 [Example 13, 4-(5-cyano-1-methyl-1H-pyrrol-2-yl)-N-cyclobutylbenzenesulfonamide] | 
13.9 nM | CNS(=O)(=O)c1ccc(-c2ccc(C#N)n2C)cc1 [Example 1, 4-(5-cyano-1-methyl-1H-pyrrol-2-yl)-N-methylbenzenesulfonamide] | 
12.3 nM | Cn1c(C#N)ccc1-c1ccc(S(=O)(=O)NCC2CC2)c(OC(F)(F)F)c1 [Example 55, 4-(5-cyano-1-methyl-1H-pyrrol-2-yl)-N-(cyclopropylmethyl)-2-(trifluoromethoxy)benzenesulfonamide] | 
11.4 nM | CCNS(=O)(=O)c1ccc(-c2ccc(C#N)n2C)cc1 [Example 3, 4-(5-cyano-1-methyl-1H-pyrrol-2-yl)-N-ethylbenzenesulfonamide] | 
8.4 nM | CCCNS(=O)(=O)c1ccc(-c2ccc(C#N)n2C)cc1OC(F)(F)F [Example 52, 4-(5-cyano-1-methyl-1H-pyrrol-2-yl)-N-propyl-2-(trifluoromethoxy)benzenesulfonamide] | 
6.6 nM | Cn1c(C#N)ccc1-c1ccc(S(=O)(=O)NC2CC2)cc1 [Example 14, 4-(5-cyano-1-methyl-1H-pyrrol-2-yl)-N-cyclopropylbenzenesulfonamide] | 
